≈ marks a conversion by molar mass, not a printed value.

One test relates to Staphylococcus aureus. The test can be described thus: Minimum inhibitory concentration against gram positive Staphylococcus aureus (MTCC 96) using broth dilution method. Type of test: functional. For orientation: Dilution methods test growth across graded concentrations, often in twofold steps.
Another test relates to Bacillus subtilis. The test can be described thus: Minimum inhibitory concentration against gram positive Bacillus subtilis (MTCC 441) using broth dilution method. Type of test: functional.
In the next test the test system is Bacillus sp. The test can be described thus: Minimum inhibitory concentration against gram positive Bacillus sphaericus (MTCC 11) using broth dilution method. Type of test: functional, Lysinibacillus sphaericus. The following applies: Bacillus sp. (in: firmicutes).
In the next test the test system is Klebsiella aerogenes. The test can be described thus: Minimum inhibitory concentration against gram negative Klebsiella aerogenes (MTCC 39) using broth dilution method. Type of test: functional.
Test [1] in a line: Minimum inhibitory concentration against gram negative Chromobacterium violaceum (MTCC 2656) using broth dilution method. Type of test: functional.

For orientation: MIC means the least concentration at which growth counts as inhibited. Consider `CCCC(=O)Oc1cc2oc(-c3ccccc3)cc(=O)c2c(O)c1OC`, for which the MIC with Staphylococcus aureus amounted to 25 µg/mL (≈ 70.6 µM); against Bacillus subtilis, 25 µg/mL (≈ 70.6 µM); against Bacillus sp., 6.25 µg/mL (≈ 17.6 µM); against Klebsiella aerogenes it was 25 µg/mL (≈ 70.6 µM); in test [1], 6.25 µg/mL (≈ 17.6 µM).
With `COc1c(OC(C)=O)cc2oc(-c3ccccc3)cc(=O)c2c1O`, the MIC was determined as 50 µg/mL (≈ 153 µM) in the test on Staphylococcus aureus; 12.5 µg/mL (≈ 38.3 µM) against Bacillus subtilis; 25 µg/mL (≈ 76.6 µM) in the test with Bacillus sp.; 50 µg/mL (≈ 153 µM) against Klebsiella aerogenes; 25 µg/mL (≈ 76.6 µM) in test [1].
For `CCCCCCCCCCCCCCCCCC(=O)Oc1cc2oc(-c3ccccc3)cc(=O)c2c(O)c1OC`, the MIC was 25 µg/mL (≈ 45.4 µM) with Staphylococcus aureus; 12.5 µg/mL (≈ 22.7 µM) with Bacillus subtilis; 12.5 µg/mL (≈ 22.7 µM) in the test with Bacillus sp.; 25 µg/mL (≈ 45.4 µM) with Klebsiella aerogenes; 12.5 µg/mL (≈ 22.7 µM) in test [1].
Take `CCCCCCCCCCCCCC(=O)Oc1cc2oc(-c3ccccc3)cc(=O)c2c(O)c1OC`: the MIC turned out to be 50 µg/mL (≈ 101 µM) in the test on Staphylococcus aureus; 25 µg/mL (≈ 50.5 µM) with Bacillus subtilis; 12.5 µg/mL (≈ 25.3 µM) against Bacillus sp.; 50 µg/mL (≈ 101 µM) in the test with Klebsiella aerogenes; 25 µg/mL (≈ 50.5 µM) in test [1].
In the case of `COc1cc(C(=O)Oc2cc3oc(-c4ccccc4)cc(=O)c3c(O)c2OC)cc(OC)c1OC`, the MIC against Staphylococcus aureus came to 25 µg/mL (≈ 52.3 µM); against Bacillus subtilis, 12.5 µg/mL (≈ 26.1 µM); in the test with Bacillus sp., 25 µg/mL (≈ 52.3 µM); in the test on Klebsiella aerogenes, 12.5 µg/mL (≈ 26.1 µM); in test [1], 6.25 µg/mL (≈ 13.1 µM).
With `CCOc1cc2oc(-c3ccccc3)cc(=O)c2c(O)c1OC`, the MIC against Staphylococcus aureus is 50 µg/mL (≈ 160 µM); against Bacillus subtilis, 25 µg/mL (≈ 80 µM); against Bacillus sp., 25 µg/mL (≈ 80 µM); in the test with Klebsiella aerogenes, 25 µg/mL (≈ 80 µM); in test [1], 25 µg/mL (≈ 80 µM).
Consider `CCOc1cc2oc(-c3ccccc3)cc(=O)c2c(OCC)c1OC`, for which the MIC against Staphylococcus aureus was 25 µg/mL (≈ 73.4 µM); against Bacillus subtilis, 25 µg/mL (≈ 73.4 µM); with Bacillus sp., 12.5 µg/mL (≈ 36.7 µM); in the test with Klebsiella aerogenes, 25 µg/mL (≈ 73.4 µM); in test [1], 25 µg/mL (≈ 73.4 µM).
`CCCCCCCCCCCCCCCC(=O)Oc1cc2oc(-c3ccccc3)cc(=O)c2c(O)c1OC`: the MIC was determined as 25 µg/mL (≈ 47.8 µM) in the test on Staphylococcus aureus; 25 µg/mL (≈ 47.8 µM) in the test with Bacillus subtilis; 25 µg/mL (≈ 47.8 µM) against Bacillus sp.; 12.5 µg/mL (≈ 23.9 µM) against Klebsiella aerogenes; 25 µg/mL (≈ 47.8 µM) in test [1].
Turning to `CCCCCCCCCCCC(=O)Oc1cc2oc(-c3ccccc3)cc(=O)c2c(O)c1OC`, the MIC came to 12.5 µg/mL (≈ 26.8 µM) in the test on Staphylococcus aureus; 25 µg/mL (≈ 53.6 µM) in the test with Bacillus subtilis; 12.5 µg/mL (≈ 26.8 µM) against Bacillus sp.; 12.5 µg/mL (≈ 26.8 µM) with Klebsiella aerogenes; 25 µg/mL (≈ 53.6 µM) in test [1].
As to `COc1c(OC(=O)C/C=C/c2ccccc2)cc2oc(-c3ccccc3)cc(=O)c2c1O`, the MIC was 12.5 µg/mL (≈ 29.2 µM) with Staphylococcus aureus; 25 µg/mL (≈ 58.4 µM) against Bacillus subtilis; 12.5 µg/mL (≈ 29.2 µM) against Bacillus sp.; 12.5 µg/mL (≈ 29.2 µM) in the test on Klebsiella aerogenes; 25 µg/mL (≈ 58.4 µM) in test [1].
In the case of `COc1c(OC(=O)c2ccc(C)cc2)cc2oc(-c3ccccc3)cc(=O)c2c1O`, the MIC with Staphylococcus aureus amounted to 50 µg/mL (≈ 124 µM); in the test on Bacillus subtilis, 50 µg/mL (≈ 124 µM); against Bacillus sp. it was 25 µg/mL (≈ 62.1 µM); against Klebsiella aerogenes it was 25 µg/mL (≈ 62.1 µM); in test [1], 50 µg/mL (≈ 124 µM).
Regarding `COc1c(OC(=O)c2ccccc2)cc2oc(-c3ccccc3)cc(=O)c2c1O`, the MIC came to 25 µg/mL (≈ 64.4 µM) in the test with Staphylococcus aureus; 12.5 µg/mL (≈ 32.2 µM) with Bacillus subtilis; 6.25 µg/mL (≈ 16.1 µM) against Bacillus sp.; 25 µg/mL (≈ 64.4 µM) with Klebsiella aerogenes; 12.5 µg/mL (≈ 32.2 µM) in test [1].
`COc1c(OC(=O)c2ccccc2Cl)cc2oc(-c3ccccc3)cc(=O)c2c1O`: the MIC in the test with Staphylococcus aureus was 12.5 µg/mL (≈ 29.6 µM); in the test with Bacillus subtilis it was 25 µg/mL (≈ 59.1 µM); with Bacillus sp., 25 µg/mL (≈ 59.1 µM); with Klebsiella aerogenes it was 25 µg/mL (≈ 59.1 µM); in test [1], 25 µg/mL (≈ 59.1 µM).
For the compound `CCCCCC(=O)Oc1cc2oc(-c3ccccc3)cc(=O)c2c(O)c1OC`, the MIC against Staphylococcus aureus amounted to 25 µg/mL (≈ 65.4 µM); against Bacillus subtilis, 25 µg/mL (≈ 65.4 µM); against Bacillus sp. it was 12.5 µg/mL (≈ 32.7 µM); in the test on Klebsiella aerogenes, 25 µg/mL (≈ 65.4 µM); in test [1], 25 µg/mL (≈ 65.4 µM).
On to `CN[C@@H]1[C@H](O[C@H]2[C@H](O[C@H]3[C@H](O)[C@@H](O)[C@H](N=C(N)N)[C@@H](O)[C@@H]3N=C(N)N)O[C@@H](C)[C@]2(O)C=O)O[C@@H](CO)[C@H](O)[C@H]1O` (stereo in doubt) [STREPTOMYCIN], for which the MIC with Staphylococcus aureus was determined as 6.25 µg/mL (≈ 10.7 µM); against Bacillus subtilis, 6.25 µg/mL (≈ 10.7 µM); against Bacillus sp., 12.5 µg/mL (≈ 21.5 µM); with Klebsiella aerogenes it was 1.56 µg/mL (≈ 2.69 µM); in test [1], 3.12 µg/mL (≈ 5.37 µM).
Consider `COc1cc2oc(-c3ccccc3)cc(=O)c2c(OC)c1OC` [BAICALEIN TRIMETHYL ETHER], for which the MIC turned out to be 25 µg/mL (≈ 80 µM) with Staphylococcus aureus; 50 µg/mL (≈ 160 µM) with Bacillus subtilis; 25 µg/mL (≈ 80 µM) with Bacillus sp.; 50 µg/mL (≈ 160 µM) against Klebsiella aerogenes; 25 µg/mL (≈ 80 µM) in test [1].
Take `COc1cc2oc(-c3ccccc3)cc(=O)c2c(O)c1OC` [MOSLOFLAVONE]: the MIC in the test with Staphylococcus aureus was found to be 50 µg/mL (≈ 168 µM); against Bacillus subtilis it was 25 µg/mL (≈ 83.8 µM); in the test on Bacillus sp., 12.5 µg/mL (≈ 41.9 µM); with Klebsiella aerogenes, 50 µg/mL (≈ 168 µM); in test [1] it was 25 µg/mL (≈ 83.8 µM).
For `COc1c(O)cc2oc(-c3ccccc3)cc(=O)c2c1O` [OROXYLIN A], the MIC against Staphylococcus aureus came to 50 µg/mL (≈ 176 µM); with Bacillus subtilis it was 50 µg/mL (≈ 176 µM); with Bacillus sp., 25 µg/mL (≈ 87.9 µM); against Klebsiella aerogenes it was 50 µg/mL (≈ 176 µM); in test [1] it was 25 µg/mL (≈ 87.9 µM).
Take `CC1(C)S[C@@H]2[C@H](NC(=O)COc3ccccc3)C(=O)N2[C@H]1C(=O)O` [PENICILLIN V]: the MIC against Staphylococcus aureus was determined as 1.56 µg/mL (≈ 4.46 µM); in the test on Bacillus subtilis, 1.56 µg/mL (≈ 4.46 µM); with Bacillus sp. it was 3.12 µg/mL (≈ 8.92 µM); with Klebsiella aerogenes it was 6.25 µg/mL (≈ 17.8 µM); in test [1], 12.5 µg/mL (≈ 35.7 µM).

These data come from ChEMBL document CHEMBL1142803, “Synthesis and in vitro study of novel 7-O-acyl derivatives of Oroxylin A as antibacterial agents” (2005).
